Where two headings read alike, the source gives them in different places.
How the values were obtained:
sigma-1 receptor = molecular target: T1, sigma-1 receptor (Cavia porcellus, UniProt Q60492); assay: Sigma-1 receptor binding assay, [3H]-(+)-pentazocine displacement in guinea pig brain membranes; details: for IC50: radioligand [3H]-(+)-pentazocine 3.0 nM, 150 min at 37° C., read-out: IC50 (inhibitory concentration); for Ki: read-out: Ki (binding affinity)
T1 construct: from tissue; host or cells: guinea pig brain membranes
T1 sequence (Q60492 whole entry): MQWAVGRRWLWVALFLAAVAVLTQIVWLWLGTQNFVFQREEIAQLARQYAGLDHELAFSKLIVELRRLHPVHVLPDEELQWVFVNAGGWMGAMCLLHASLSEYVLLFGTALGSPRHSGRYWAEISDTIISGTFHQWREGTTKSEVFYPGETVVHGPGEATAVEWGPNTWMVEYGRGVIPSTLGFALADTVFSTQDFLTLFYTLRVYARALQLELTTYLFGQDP

SMILES: Cc1cc(OCCN2CCOCC2)nn1-c1ccc2ccc(O)cc2c1 (hydrate or solvate) [Compound 4, 4-{2-[1-(7-hydroxynaphthalen-2-yl)-5-methyl-1H-pyrazol-3-yloxy]ethyl}morpholine chlorhydrate]
- melting point: 103 to 107 °C

SMILES: Cc1cc(OCCN2CCOCC2)nn1-c1ccc2c(c1)C=CC(O)C2O (stereo not shown) [Compound 1, 6-(5-methyl-3-(2-morpholinoethoxy)-1H-pyrazol-1-yl)-1,2-dihydronaphthalene-1,2-diol]
- IC50 (sigma-1 receptor; guinea pig brain membranes): > 1000 nM

SMILES: Cc1cc(OCCN2CCOCC2)nn1-c1ccc2cc(O)ccc2c1 [Compound 2, 4-{2-[1-(6-hydroxynaphthalen-2-yl)-5-methyl-1H-pyrazol-3-yloxy]ethyl}morpholine chlorhydrate]
- IC50 (sigma-1 receptor; guinea pig brain membranes): > 1000 nM

SMILES: Cc1cc(OCCN2CCOCC2)nn1-c1ccc2c(O)cccc2c1 [Compound 3, 4-{2-[1-(5-hydroxynaphthalen-2-yl)-5-methyl-1H-pyrazol-3-yloxy]ethyl}morpholine]
- Ki (sigma-1 receptor): 329 nM

SMILES: Cc1cc(OCCN2CCOCC2)nn1-c1ccc2ccc(O)cc2c1 [Compound 4, 4-{2-[1-(7-hydroxynaphthalen-2-yl)-5-methyl-1H-pyrazol-3-yloxy]ethyl}morpholine chlorhydrate]
- IC50 (sigma-1 receptor; guinea pig brain membranes): > 1000 nM

SMILES: Cc1cc(OCCNCCO)nn1-c1ccc2ccccc2c1 [Compound 5, 2-(2-(5-methyl-1-(naphthalen-2-yl)-1H-pyrazol-3-yloxy)ethylamino)ethanol chlorhydrate]
- Ki (sigma-1 receptor; guinea pig brain membranes, [3H]-(+)-pentazocine 3.0 nM, calculated from IC50 by the Cheng-Prussof equation): 102 nM

SMILES: Cc1cc(OCC[N+]2([O-])CCOCC2)nn1-c1ccc2ccccc2c1 [Compound 6, 4-(2-(5-methyl-1-(naphthalen-2-yl)-1H-pyrazol-3-yloxy)ethyl)morpholine 4-oxide]
- IC50 (sigma-1 receptor; guinea pig brain membranes): > 1000 nM

Reference: patent US8492425B2, “5-methyl-1-(naphthalen-2-yl)-1H-pyrazoles useful as sigma receptor inhibitors” (Laboratories Del Dr. Esteve, S.A., priority 2008, dated 2013)
